Laboratory results as given in the supplement of paper PMC10627819.

Experiments:
S. aureus DSM 20231 [1] = assay: fitness (endpoint OD595 vs no drug) (fraction); higher = more growth
Outline: (§1)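 Growth medium was TSB, LB Lennox or CY, and plates were kept at 37 °C. Inoculation was at OD595 0.01 in 384-well plates, at 30 µl per well or 55 µl for S. pneumoniae. OD595 was monitored every 30 min for 14 h and background-subtracted using the first reading. Fitness is the optical density on entering stationary phase divided by the robust mean of no-drug controls, with values capped at 1.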

S. aureus Newman [2] = assay: as above
Outline: as §1

S. pneumoniae D39V [3] = assay: as above
Outline: as §1

B. subtilis 168 = assay: Bliss interaction score (quartile over a dose matrix) (fitness difference); higher = more antagonism (negative = synergy)
Outline: (§2)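 Fitness was OD595 at entry into stationary phase divided by the plate's robust no-drug mean and capped at 1; single-drug fitness was inferred from combination data. The Bliss score is observed minus expected (product) fitness, summarised by quartiles over technical, biological and donor/recipient replicates.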

S. aureus DSM 20231 [4] = assay: as above
Outline: as §2

S. aureus Newman [5] = assay: as above
Outline: as §2

S. pneumoniae D39V [6] = assay: as above
Outline: as §2
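Wherever Bliss interaction score (quartile over a dose matrix) is given: first quartile when negative (synergy) and third quartile when positive (antagonism).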

CC1(C)S[C@@H]2[C@H](NC(=O)[C@H](N)c3ccc(O)cc3)C(=O)N2[C@H]1C(=O)O [Amoxicillin] + CC1=C\[C@@H](O)CC(=O)Cc2nc(co2)C(=O)N2CCC=C2C(=O)O[C@H](C(C)C)[C@H](C)/C=C/C(=O)NC\C=C\1 [Virginiamycin M1]
Conditions | fitness
S. aureus DSM 20231 [1], first compound 0.0625 µg/mL, partner 0.0625 µg/mL | 0.48
S. aureus DSM 20231 [1], first compound 0.0625 µg/mL, partner 0.125 µg/mL | 0.488
S. aureus DSM 20231 [1], first compound 0.0625 µg/mL, partner 0.25 µg/mL | 0.504
S. aureus DSM 20231 [1], first compound 0.125 µg/mL, partner 0.0625 µg/mL | 0.329
S. aureus DSM 20231 [1], first compound 0.25 µg/mL, partner 0.125 µg/mL | 0.0421
S. aureus DSM 20231 [1], first compound 0.25 µg/mL, partner 0.25 µg/mL | 0.0398
S. aureus Newman [2], first compound 0.0625 µg/mL, partner 0.0625 µg/mL | 0.935
S. aureus Newman [2], first compound 0.0625 µg/mL, partner 0.125 µg/mL | 0.893
S. aureus Newman [2], first compound 0.0625 µg/mL, partner 0.25 µg/mL | 0.906
S. aureus Newman [2], first compound 0.125 µg/mL, partner 0.0625 µg/mL | 0.883
S. aureus Newman [2], first compound 0.125 µg/mL, partner 0.125 µg/mL | 0.948
S. aureus Newman [2], first compound 0.125 µg/mL, partner 0.25 µg/mL | 0.945
S. aureus Newman [2], first compound 0.25 µg/mL, partner 0.0625 µg/mL | 0.867
S. aureus Newman [2], first compound 0.25 µg/mL, partner 0.125 µg/mL | 0.921
S. aureus Newman [2], first compound 0.25 µg/mL, partner 0.25 µg/mL | 0.886
S. pneumoniae D39V [3], first compound 0.0008 µg/mL, partner 0.5 µg/mL | 0.988
S. pneumoniae D39V [3], first compound 0.0008 µg/mL, partner 1 µg/mL | ≥ 1
S. pneumoniae D39V [3], first compound 0.0008 µg/mL, partner 2 µg/mL | 0.937
S. pneumoniae D39V [3], first compound 0.0015 µg/mL, partner 0.5 µg/mL | 0.978
S. pneumoniae D39V [3], first compound 0.0015 µg/mL, partner 1 µg/mL | 0.965
S. pneumoniae D39V [3], first compound 0.0015 µg/mL, partner 2 µg/mL | 0.95
S. pneumoniae D39V [3], first compound 0.003 µg/mL, partner 0.5 µg/mL | 0.926
S. pneumoniae D39V [3], first compound 0.003 µg/mL, partner 1 µg/mL | 0.956
S. pneumoniae D39V [3], first compound 0.003 µg/mL, partner 2 µg/mL | 0.914

one replicate
Conditions | fitness
S. aureus DSM 20231 [1], first compound 0.0625 µg/mL, partner 0.5 µg/mL | 0.541
S. aureus DSM 20231 [1], first compound 0.0625 µg/mL, partner 1 µg/mL | 0.699
S. aureus DSM 20231 [1], first compound 0.125 µg/mL, partner 0.5 µg/mL | 0.444
S. aureus DSM 20231 [1], first compound 0.125 µg/mL, partner 1 µg/mL | 0.497
S. aureus DSM 20231 [1], first compound 0.25 µg/mL, partner 0.5 µg/mL | 0.0437
S. aureus DSM 20231 [1], first compound 0.25 µg/mL, partner 1 µg/mL | 0.108
S. aureus DSM 20231 [1], first compound 0.5 µg/mL, partner 0.0625 µg/mL | 0.0149
S. aureus DSM 20231 [1], first compound 0.5 µg/mL, partner 0.125 µg/mL | 0.0318
S. aureus DSM 20231 [1], first compound 0.5 µg/mL, partner 0.25 µg/mL | 0.0127
S. aureus Newman [2], first compound 0.125 µg/mL, partner 0.5 µg/mL | 0.81
S. aureus Newman [2], first compound 0.125 µg/mL, partner 1 µg/mL | ≥ 1
S. aureus Newman [2], first compound 0.125 µg/mL, partner 2 µg/mL | 0.845
S. aureus Newman [2], first compound 0.25 µg/mL, partner 0.5 µg/mL | 0.813
S. aureus Newman [2], first compound 0.25 µg/mL, partner 1 µg/mL | 0.865
S. aureus Newman [2], first compound 0.25 µg/mL, partner 2 µg/mL | 0.754
S. aureus Newman [2], first compound 0.5 µg/mL, partner 0.5 µg/mL | 0.74
S. aureus Newman [2], first compound 0.5 µg/mL, partner 1 µg/mL | 0.828
S. aureus Newman [2], first compound 0.5 µg/mL, partner 2 µg/mL | 0.732
S. pneumoniae D39V [3], first compound 0.0008 µg/mL, partner 0.15 µg/mL | 0.996
S. pneumoniae D39V [3], first compound 0.0008 µg/mL, partner 0.3 µg/mL | 0.892
S. pneumoniae D39V [3], first compound 0.0015 µg/mL, partner 0.15 µg/mL | 0.948
S. pneumoniae D39V [3], first compound 0.0015 µg/mL, partner 0.3 µg/mL | 0.9
S. pneumoniae D39V [3], first compound 0.003 µg/mL, partner 0.15 µg/mL | 0.951
S. pneumoniae D39V [3], first compound 0.003 µg/mL, partner 0.3 µg/mL | 0.906
S. pneumoniae D39V [3], first compound 0.006 µg/mL, partner 0.5 µg/mL | 0.447
S. pneumoniae D39V [3], first compound 0.006 µg/mL, partner 1 µg/mL | 0.474
S. pneumoniae D39V [3], first compound 0.006 µg/mL, partner 2 µg/mL | 0.46

Conditions | Bliss interaction score
B. subtilis 168 | -0.0567
S. aureus DSM 20231 [4] | -0.0553
S. aureus Newman [5] | 0.0682
S. pneumoniae D39V [6] | -0.0459

CC1(C)S[C@@H]2[C@H](NC(=O)[C@H](N)c3ccc(O)cc3)C(=O)N2[C@H]1C(=O)O [Amoxicillin] + CCCCCCCCCC(=O)N[C@@H]1[C@H]([C@@H]([C@H](O[C@H]1OC2=C3C=C4C=C2OC5=C(C=C(C=C5)[C@H]([C@H]6C(=O)N[C@@H](C7=C(C(=CC(=C7)O)OC8[C@H]([C@H]([C@@H]([C@H](O8)CO)O)O)O)C9=C(C=CC(=C9)[C@H](C(=O)N6)NC(=O)[C@@H]4NC(=O)[C@@H]1C2=CC(=CC(=C2)OC2=C(C=CC(=C2)[C@H](C(=O)N[C@H](CC2=CC(=C(O3)C=C2)Cl)C(=O)N1)N)O)O)O)C(=O)O)O[C@H]1[C@@H]([C@H]([C@@H]([C@H](O1)CO)O)O)NC(=O)C)Cl)CO)O)O [Teicoplanin]
fitness, main component drawn
Conditions | first compound 0.0625 µg/mL | first compound 0.125 µg/mL | first compound 0.25 µg/mL
S. aureus DSM 20231 [1], partner 0.1562 µg/mL | 0.575 | 0.408 | 0.199
S. aureus DSM 20231 [1], partner 0.3125 µg/mL | 0.658 | – | –
S. aureus DSM 20231 [1], partner 0.625 µg/mL | 0.619 | – | 0.0287
S. aureus Newman [2], partner 0.1562 µg/mL | 0.947 | 0.94 | 0.848
S. aureus Newman [2], partner 0.3125 µg/mL | 0.898 | 0.913 | 0.815
S. aureus Newman [2], partner 0.625 µg/mL | 0.823 | 0.853 | 0.73

fitness, one replicate, main component drawn
Conditions | partner 0.1562 µg/mL | partner 0.3125 µg/mL | partner 0.62 µg/mL | partner 0.625 µg/mL | partner 1.24 µg/mL | partner 2.48 µg/mL
S. aureus DSM 20231 [1], first compound 0.5 µg/mL | 0.0188 | 0.0061 | – | 0.0019 | – | –
S. aureus Newman [2], first compound 0.125 µg/mL | – | – | 0.747 | – | 0.689 | 0.396
S. aureus Newman [2], first compound 0.25 µg/mL | – | – | 0.725 | – | 0.785 | 0.491
S. aureus Newman [2], first compound 0.5 µg/mL | – | – | 0.724 | – | 0.684 | 0.462

main component drawn
Conditions | Bliss interaction score
B. subtilis 168 | -0.1
S. aureus DSM 20231 [4] | 0.0453
S. aureus Newman [5] | 0.0682
S. pneumoniae D39V [6] | -0.0856

CC1(C)S[C@@H]2[C@H](NC(=O)[C@H](N)c3ccc(O)cc3)C(=O)N2[C@H]1C(=O)O [Amoxicillin] + CCC[C@@H]1C[C@@H](C(=O)N[C@@H]([C@H]2O[C@H](SC)[C@H](O)[C@@H](O)[C@H]2O)[C@H](C)Cl)N(C)C1 [Clindamycin]
Conditions | fitness
S. aureus DSM 20231 [1], first compound 0.0625 µg/mL, partner 0.0625 µg/mL | 0.132
S. aureus DSM 20231 [1], first compound 0.0625 µg/mL, partner 0.125 µg/mL | 0.0693
S. aureus DSM 20231 [1], first compound 0.125 µg/mL, partner 0.0312 µg/mL | 0.157
S. aureus DSM 20231 [1], first compound 0.125 µg/mL, partner 0.0625 µg/mL | 0.0589
S. aureus DSM 20231 [1], first compound 0.125 µg/mL, partner 0.125 µg/mL | 0.0684
S. aureus DSM 20231 [1], first compound 0.25 µg/mL, partner 0.0312 µg/mL | 0.0508
S. aureus DSM 20231 [1], first compound 0.25 µg/mL, partner 0.0625 µg/mL | 0.038
S. aureus DSM 20231 [1], first compound 0.25 µg/mL, partner 0.125 µg/mL | 0.0621
S. aureus DSM 20231 [1], first compound 0.5 µg/mL, partner 0.0312 µg/mL | 0.0205
S. aureus DSM 20231 [1], first compound 0.5 µg/mL, partner 0.0625 µg/mL | 0.0091
S. aureus DSM 20231 [1], first compound 0.5 µg/mL, partner 0.125 µg/mL | 0.0231
S. aureus Newman [2], first compound 0.0625 µg/mL, partner 0.0312 µg/mL | 0.698
S. aureus Newman [2], first compound 0.125 µg/mL, partner 0.125 µg/mL | 0.0978
S. pneumoniae D39V [3], first compound 0.0008 µg/mL, partner 0.0125 µg/mL | 0.796
S. pneumoniae D39V [3], first compound 0.0008 µg/mL, partner 0.025 µg/mL | 0.519
S. pneumoniae D39V [3], first compound 0.0008 µg/mL, partner 0.05 µg/mL | 0.203
S. pneumoniae D39V [3], first compound 0.0015 µg/mL, partner 0.0125 µg/mL | 0.77
S. pneumoniae D39V [3], first compound 0.0015 µg/mL, partner 0.015 µg/mL | 0.92
S. pneumoniae D39V [3], first compound 0.0015 µg/mL, partner 0.025 µg/mL | 0.488
S. pneumoniae D39V [3], first compound 0.0015 µg/mL, partner 0.03 µg/mL | 0.757
S. pneumoniae D39V [3], first compound 0.0015 µg/mL, partner 0.05 µg/mL | 0.186
S. pneumoniae D39V [3], first compound 0.0015 µg/mL, partner 0.06 µg/mL | 0.539
S. pneumoniae D39V [3], first compound 0.003 µg/mL, partner 0.0125 µg/mL | 0.77
S. pneumoniae D39V [3], first compound 0.003 µg/mL, partner 0.015 µg/mL | 0.872
S. pneumoniae D39V [3], first compound 0.003 µg/mL, partner 0.025 µg/mL | 0.482
S. pneumoniae D39V [3], first compound 0.003 µg/mL, partner 0.03 µg/mL | 0.726
S. pneumoniae D39V [3], first compound 0.003 µg/mL, partner 0.05 µg/mL | 0.186
S. pneumoniae D39V [3], first compound 0.003 µg/mL, partner 0.06 µg/mL | 0.509

fitness, S. pneumoniae D39V [3], one replicate
Conditions | partner 0.015 µg/mL | partner 0.03 µg/mL | partner 0.06 µg/mL
first compound 0.0008 µg/mL | 0.962 | 0.84 | 0.557
first compound 0.006 µg/mL | 0.505 | 0.385 | 0.298

Conditions | Bliss interaction score
B. subtilis 168 | -0.0391
S. aureus DSM 20231 [4] | 0.0324
S. aureus Newman [5] | -0.0717
S. pneumoniae D39V [6] | 0.151
